One experiment has as its target T1, thromboxane receptors (Cavia porcellus, UniProt A0A286Y4I8).
T1 construct: U46619 causes a bronchoconstriction which results in an increase in tracheal pressure; from tissue; host or cells: whole anesthetized guinea pig (in vivo, airways)
T1 sequence (A0A286Y4I8 1-347): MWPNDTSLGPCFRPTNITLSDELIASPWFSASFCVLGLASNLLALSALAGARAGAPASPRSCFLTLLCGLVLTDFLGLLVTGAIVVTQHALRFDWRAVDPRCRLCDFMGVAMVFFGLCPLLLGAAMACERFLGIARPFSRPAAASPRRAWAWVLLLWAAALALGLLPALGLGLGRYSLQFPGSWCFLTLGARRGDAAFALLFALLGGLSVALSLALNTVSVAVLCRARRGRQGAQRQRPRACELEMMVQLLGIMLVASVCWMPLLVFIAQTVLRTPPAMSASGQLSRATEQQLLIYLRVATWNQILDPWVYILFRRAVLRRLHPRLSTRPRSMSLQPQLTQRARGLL
Briefly: IC50 on the tracheal pressure in guinea pigs (bronchoconstriction induced by U46619 in vivo). The conditions noted are these: guinea pig, iv, 5 min; anesthetized guinea pigs, antagonist injected 5 minutes before U46619 (2 μg/kg i.v.), jugular vein; read-out: IC50, antagonist dose which inhibits by 50% the increase in tracheal pressure caused by U46619. An excerpt: Male albino guinea pigs (350-400 g), subjected to an 18-hour water diet, are anesthetized with ethylcarbamate (1.25 g/kg i.p.). A catheter is introduced into the carotid artery in order to measure the blood pressure by means of a pressure cell. A second catheter is introduced introduced into the jugular vein and is used for injecting the pharmacological substances. The trachea is cannulated and the guinea pig is placed under assisted respiration by means of a respirator. The temperature of the animal is kept at 37° C. by means of a thermostated cover. A needle pricked into the tracheal cannula is connected to a pressure cell and allows the tracheal pressure to be recorded. The guinea pigs are pretreated with d-tubocurarine (1 mg/kg i.v.) and with indomethacin (10 mg/kg i.v.). Injected at a dose of 2 μg/kg i.v., U46619 causes a bronchoconstriction which results in an increase in tracheal pressure and induces an increase in blood pressure. The responses to U46619 are reversible and reproducible if the injections are performed every 10 minutes.
The antagonists of thromboxane receptors are injected 5 minutes before the injections of U46619. The antagonist dose which inhibits by 50% the increase in tracheal pressure caused by U46619 is determined (IC50).

Experiment [1] has as its target T2, TXA2 receptors (Cavia porcellus, UniProt A0A286Y4I8).
T2 construct: the trachea is rapidly removed and then cut out into rings containing two cartilages; from tissue; host or cells: guinea pig trachea rings
T2 sequence (A0A286Y4I8 1-347): T1 sequence (A0A286Y4I8 1-347)
Put plainly: Determination of the pA2 values on guinea pig trachea (contractions caused by U46619). Format: cell-based. The conditions noted are these: guinea pig tracheal rings, 37° C., agonist U46619 10^-9 M to 10^-5 M, antagonist contact 20 minutes; read-out: pA2 (negative logarithm of the concentration of antagonist in the presence of which twice the amount of agonist is required for the same effect) (converted). The protocol: 400-500-gram albino male guinea pigs were sacrificed by striking the nape of the neck and by pulling the neck. The throat is cut and the trachea is rapidly removed and then cut out into rings containing two cartilages. These rings are mounted between two hooks in cuvettes thermostated at 37° C., containing physiological saline (composition in mM: 118 NaCl; 25 NaHCO3; 10 glucose; 4.7 KCl; 1.25 CaCl2; 1.19 MgSO4; 1.14 KH2 PO4).
The physiological saline is bubbled with a mixture of 95% O2 -5% CO2. The bottom hook constitutes the fixed point while the upper hook is connected to an isometric force sensor. The tissues are placed under a basal tension of 3.5 grams. The pharmacological substances studied are prepared immediately before use. The drugs are solubilized in water or in dimethyl sulfoxide.
After mounting, the preparations are allowed to stand for 90 minutes, rinsings being carried out every 30 minutes. After readjusting the basal tension, a contraction generated by a single dose of agonist (U46619; 10^-5 M) is generated in order to stabilize subsequent contractions. After washing and returning to the base line, a first effect/concentration curve is produced by the addition of cumulative doses of U46619 (10^-9 M to 10^-5 M; the interval between the doses is a semilog). This first experiment makes it possible to calculate the effective concentration 50% (EC50) "control".
This EC50 is routinely calculated in the following manner: the tension values are first converted to percentages relative to the maximum effect, these percentages are then plotted on a graph with the percentages on the y-axis and the log(concentration) values on the x-axis. A linear regression is then performed on the points between 10% and 90% (which corresponds to the linear portion of the sigmoid curve). The concentration corresponding to half maximum effect (50%) can be easily calculated by means of the parameters of the straight line.
After washing and returning to the base line, the organ is placed in contact with the antagonist ([…]) for 20 minutes. A second effect/concentration curve is then produced in the presence of the antagonist and the "treated" EC50 can then be calculated. All the elements required for calculating the pA2 (competitive antagonism) or the pD2 (noncompetitive antagonism) are thus available.
The pA2 (which represents the negative logarithm of the concentration of antagonist in the presence of which twice the amount of agonist is required in order to obtain the same effect) is determined by plotting on a graph the log((L/l)-1) values relative to the log(concentration of antagonist), with L=effect in the presence of antagonist and 1=control effect. In this test, the pA2 values for the compounds of Examples 14 and 18 are as follows: […]

For experiment [2], the target named is T3, TXA2 receptors (Oryctolagus cuniculus, UniProt Q6WQI8).
T3 construct: citrated platelet-rich plasma, U46619-induced aggregation
T3 sequence (Q6WQI8 1-233): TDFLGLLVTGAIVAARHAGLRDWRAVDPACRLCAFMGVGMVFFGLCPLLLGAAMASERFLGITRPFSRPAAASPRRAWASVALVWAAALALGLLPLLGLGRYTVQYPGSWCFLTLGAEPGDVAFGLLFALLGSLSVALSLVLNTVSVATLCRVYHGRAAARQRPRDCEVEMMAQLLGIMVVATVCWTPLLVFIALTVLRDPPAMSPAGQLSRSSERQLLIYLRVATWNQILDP
Briefly: Platelet aggregation induced by U46619 in rabbit platelet-rich plasma (PRP). In kind it is cell-based. The conditions noted are these: 37° C., antagonist added 3 min before U46619 (1.2 μM), read-out: IC50, concentration which induces 50% inhibition of the aggregation response induced by U46619. The method, then:
The rabbits (2-3 kg) are anesthetized with sodium pentobarbital (30 mg/kg i.v.). After cannulation of the left carotid artery, the blood is collected over sodium citrate (0.109 M) (1 vol. of citrate per 9 vol. of blood).
The plasma which is high in platelets (PRP) is obtained by centrifugation (20° C.) at 250 g for 20 minutes and the plasma which is low in platelets (PPP) by centrifugation at 1000 g (10 min). The number of platelets (PL) in the PRP is adjusted to between 300-350,000 pl/mm^3 by dilution with autologous PPP. The PRP is stored at room temperature up to the time of the test and is used within 4 hours following the collection. Platelet aggregation is performed at 37° C. in glass tubes siliconized by means of an aggregometer. The PRP and PLs are stirred at 1000 rpm (revolution per minute). In order to study the activity of the thromboxane antagonists, the PRP is incubated for 1 min at 37° C., and the antagonist is then added for a period of 3 min before adding the agonist U46619 (1.2 μM). The final volume of the cuvette is then 250 μl. The extent of platelet aggregation is determined by measuring the maximum amplitude of the aggregation plots and is expressed as a percentage of light transmission (% T). The activity of the antagonists is expressed as IC50, that is to say the concentration of the substance which induces 50% inhibition of the aggregation response induced by U46619.

For `O=C(O)CCC/C=C\[C@@H]1CN(Cc2ccccc2)C[C@@H]1c1ccccc1O` (relative stereo) [Example 13, (5Z) -6-[(3α,4α) -1-Benzyl-4-(2-hydroxyphenyl)pyrrolidin-3-yl]hex-5-enoic acid], the ED50 on thromboxane receptors was found to be 2.28 mg/kg.
On to `O=C(O)CCC/C=C\C[C@@H]1CN(Cc2ccccc2)C[C@@H]1c1ccccc1O` (relative stereo) [Example 14, (5Z)-7-[(3α,4α)-1-Benzyl-4-(2-hydroxyphenyl)pyrrolidin-3-yl]hept-5-enoic acid], for which the Kb at TXA2 receptors [1] is 282 nM. For the same molecule, the ED50 at thromboxane receptors was found to be 1.02 mg/kg.
For `O=C(O)CC/C=C\C[C@@H]1CN(Cc2ccccc2)C[C@@H]1c1ccccc1O` (relative stereo) [Example 15, (4Z) -6[(3α,4α) -1-Benzyl-4-(2-hydroxyphenyl)pyrrolidin-3-yl]hex-4-enoic acid], the ED50 on thromboxane receptors amounted to 0.177 mg/kg.
Regarding `O=C(O)CC/C=C\C[C@@H]1CN(S(=O)(=O)c2ccc(Cl)cc2)C[C@H]1c1ccccc1O` (relative stereo) [Example 18, (4Z)-6-[(3α, 4β)-1-(4-Chlorophenylsulfonyl)-4-(2-hydroxyphenyl)pyrrolidin-3-yl]hex-4-enoic acid], the IC50 on TXA2 receptors [2] came out at 5400 nM. For the same molecule, the Kb at TXA2 receptors [1] is 7.94 nM. The ED50 at thromboxane receptors turned out to be 0.03 mg/kg.
As to `CC(C)C(=O)N1C[C@@H](C/C=C\CCC(=O)O)[C@@H](c2ccccc2O)C1` (relative stereo) [Example 19], the Kb on TXA2 receptors [1] is 200 nM. The ED50 on thromboxane receptors amounted to 0.1 mg/kg.
Regarding `CC(C)C(=O)N1C[C@@H](C/C=C\CCC(=O)O)[C@H](c2ccccc2O)C1` (relative stereo) [Example 20, (4Z)-6-[(3α,4β)-1-Isobutyroyl-4-(2-hydroxyphenyl)pyrrolidin-3-yl]hex-4-enoic acid], on thromboxane receptors, the ED50 is 1.31 mg/kg.
`O=C(O)CC/C=C\C[C@H]1CN(Cc2cccnc2)C[C@H]1c1ccccc1O` (relative stereo) [Example 21, (4Z)-6-[(3α, 4α)-4-(2-hydroxyphenyl)-1-[(3-pyridyl)methyl]pyrrolidin-3-yl]hex-4-enoic acid]: the Kb at TXA2 receptors [1] is 1580 nM. Further, the ED50 at thromboxane receptors stood at 1.03 mg/kg.
Turning to `O=C(O)CC/C=C\C[C@@H]1CN(C(=O)Nc2ccccc2)C[C@@H]1c1ccccc1O` (relative stereo) [Example 22, (4Z)-6-[(3α,4α)-1-Phenylaminocarbonyl-4-(2-hydroxyphenyl)pyrrolidin-3-yl]hex-4-enoic acid], on TXA2 receptors [2], the IC50 is 4000 nM. Moreover, on thromboxane receptors, the ED50 was found to be 1.21 mg/kg.
In the case of `CCCCCCC(=O)N1C[C@@H](C/C=C\CCC(=O)O)[C@@H](c2ccccc2O)C1` (relative stereo) [Example 23, (4Z)-6-[(3α,4α)-1-Heptanoyl-4-(2-hydroxyphenyl)pyrrolidin-3-yl]hex-4-enoic acid], the Kb on TXA2 receptors [1] was 20 nM. On thromboxane receptors, the ED50 is 0.43 mg/kg.
`O=C(O)CC/C=C\C[C@@H]1CN(S(=O)(=O)c2cccc3cnccc23)C[C@@H]1c1ccccc1O` (relative stereo) [Example 24, (4Z)-6-[(3α,4α)-1-[(Isoquinol-5-yl)sulfonyl]-4-(2-hydroxyphenyl)pyrrolidin-3-yl]hex-4-enoic acid]: the IC50 on TXA2 receptors [2] amounted to 800 nM. For the same molecule, the Kb on TXA2 receptors [1] is 0.316 nM. Moreover, the ED50 on thromboxane receptors was 0.01 mg/kg.
As for `O=C(O)CC/C=C\C[C@@H]1CN(S(=O)(=O)c2cccc3cnccc23)C[C@H]1c1ccccc1O` (relative stereo) [Example 25, (4Z)-6-[(3α,4β)-1-[(Isoquinol-5-yl)sulfonyl]-4-(2-hydroxyphenyl)pyrrolidin-3-yl]hex-4-enoic acid], the IC50 at TXA2 receptors [2] was found to be 5000 nM. Further, at thromboxane receptors, the ED50 worked out at 0.06 mg/kg.
As to `O=C(O)CC/C=C\C[C@@H]1CN(S(=O)(=O)c2cccc3cccnc23)C[C@@H]1c1ccccc1O` (relative stereo) [Example 27, (4Z)-6-[(3α,4α)-1-[(Quinol-8-yl)sulfonyl]-4-(2-hydroxyphenyl)pyrrolidin-3-yl]hex-4-enoic acid], the ED50 at thromboxane receptors was 0.03 mg/kg.
With `O=C(O)CC/C=C\C[C@@H]1CN(S(=O)(=O)c2cccc3ccccc23)C[C@@H]1c1ccccc1O` (relative stereo) [Example 28], the IC50 on TXA2 receptors [2] was found to be 500 nM. Further, the Kb on TXA2 receptors [1] is 1.58 nM. For the same molecule, at thromboxane receptors, the ED50 stood at 0.01 mg/kg.
In the case of `O=C(O)CC/C=C\C[C@@H]1CN(S(=O)(=O)c2ccc3ccccc3c2)C[C@@H]1c1ccccc1O` (relative stereo) [Example 29], the ED50 at thromboxane receptors stood at 0.11 mg/kg.
With `O=C(O)CCC/C=C\C[C@@H]1CN(S(=O)(=O)c2cccc3cnccc23)C[C@@H]1c1ccccc1O` (relative stereo) [Example 30, (5Z-7-[(3α,4α)-1-[(Isoquinolyl-5-yl)sulfonyl]-4-(2-hydroxyphenyl)pyrrolidin-3-yl)]hept-5-enoic acid], on TXA2 receptors [2], the IC50 stood at 500 nM. On thromboxane receptors, the ED50 came to 0.08 mg/kg.

These data come from patent publication US5407946A, “Pyrrolidine compounds which are useful as thromboxane AZ-inhibitors” (Adir et Compagnie, priority 1992, dated 1995).
